Source: patent US12486267B2, “Imidazo[1,2-A]pyridine and [1,2,4]triazolo[1,5-A]pyridine derivatives as TLR9 inhibitors for the treatment of fibrosis” (BRISTOL-MYERS SQUIBB COMPANY, priority 2020, dated 2025)

Columns and labels:
Type in all cases: cell-based
human TLR9 = molecular target: T1, human TLR9 (Homo sapiens, UniProt Q9NR96); assay: TLR9 inhibition reporter assay (HEK-Blue cells, SEAP reporter); conditions: HEK-Blue cells overexpressing human TLR9; stimulated with ODN2006 5 nM; 22 hour incubation; SEAP readout
T1 sequence (Q9NR96 26-1032): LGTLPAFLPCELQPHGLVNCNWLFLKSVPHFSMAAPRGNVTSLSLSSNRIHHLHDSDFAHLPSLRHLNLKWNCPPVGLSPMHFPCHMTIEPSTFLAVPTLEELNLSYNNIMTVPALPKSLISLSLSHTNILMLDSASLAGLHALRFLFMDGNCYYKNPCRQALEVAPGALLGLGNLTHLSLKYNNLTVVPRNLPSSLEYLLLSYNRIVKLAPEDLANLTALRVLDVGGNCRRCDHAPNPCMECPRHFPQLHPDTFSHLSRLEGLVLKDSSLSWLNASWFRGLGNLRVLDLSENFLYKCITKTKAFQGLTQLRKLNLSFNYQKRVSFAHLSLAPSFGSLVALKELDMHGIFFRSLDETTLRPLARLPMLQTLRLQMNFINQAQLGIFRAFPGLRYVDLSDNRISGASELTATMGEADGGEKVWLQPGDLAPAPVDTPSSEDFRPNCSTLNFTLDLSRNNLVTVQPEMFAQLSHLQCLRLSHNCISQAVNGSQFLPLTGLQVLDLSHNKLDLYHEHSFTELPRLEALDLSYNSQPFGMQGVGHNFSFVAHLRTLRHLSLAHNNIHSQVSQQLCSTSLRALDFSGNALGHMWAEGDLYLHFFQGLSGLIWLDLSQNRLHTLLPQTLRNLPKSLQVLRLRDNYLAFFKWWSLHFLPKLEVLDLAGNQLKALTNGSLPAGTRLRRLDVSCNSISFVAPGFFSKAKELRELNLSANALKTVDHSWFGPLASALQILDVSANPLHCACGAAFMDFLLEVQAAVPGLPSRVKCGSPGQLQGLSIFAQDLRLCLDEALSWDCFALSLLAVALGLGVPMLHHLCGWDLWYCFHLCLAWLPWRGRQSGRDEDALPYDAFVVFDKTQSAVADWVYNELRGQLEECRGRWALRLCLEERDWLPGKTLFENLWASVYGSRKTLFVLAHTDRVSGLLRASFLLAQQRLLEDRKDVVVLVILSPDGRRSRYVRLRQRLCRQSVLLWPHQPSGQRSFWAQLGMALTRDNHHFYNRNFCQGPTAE
Method in brief: (§1)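 HEK-Blue cells with an NF-κB/AP-1-driven SEAP reporter were pre-treated 30 min at room temperature with compound (0.05 nM–50 μM), then stimulated with gardiquimod 7.5 μM (TLR7), R848 15.9 μM (TLR8) or ODN2006 5 nM (TLR9). After 22 h at 37 °C, SEAP was read; % inhibition was referenced to agonist+DMSO and known-inhibitor wells.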

human TLR7 = molecular target: T2, human TLR7 (Homo sapiens, UniProt Q9NYK1); assay: TLR7 inhibition reporter assay (HEK-Blue cells, SEAP reporter); conditions: HEK-Blue cells overexpressing human TLR7; stimulated with gardiquimod 7.5 μM; 22 hour incubation; SEAP readout
T2 sequence (Q9NYK1 27-1049): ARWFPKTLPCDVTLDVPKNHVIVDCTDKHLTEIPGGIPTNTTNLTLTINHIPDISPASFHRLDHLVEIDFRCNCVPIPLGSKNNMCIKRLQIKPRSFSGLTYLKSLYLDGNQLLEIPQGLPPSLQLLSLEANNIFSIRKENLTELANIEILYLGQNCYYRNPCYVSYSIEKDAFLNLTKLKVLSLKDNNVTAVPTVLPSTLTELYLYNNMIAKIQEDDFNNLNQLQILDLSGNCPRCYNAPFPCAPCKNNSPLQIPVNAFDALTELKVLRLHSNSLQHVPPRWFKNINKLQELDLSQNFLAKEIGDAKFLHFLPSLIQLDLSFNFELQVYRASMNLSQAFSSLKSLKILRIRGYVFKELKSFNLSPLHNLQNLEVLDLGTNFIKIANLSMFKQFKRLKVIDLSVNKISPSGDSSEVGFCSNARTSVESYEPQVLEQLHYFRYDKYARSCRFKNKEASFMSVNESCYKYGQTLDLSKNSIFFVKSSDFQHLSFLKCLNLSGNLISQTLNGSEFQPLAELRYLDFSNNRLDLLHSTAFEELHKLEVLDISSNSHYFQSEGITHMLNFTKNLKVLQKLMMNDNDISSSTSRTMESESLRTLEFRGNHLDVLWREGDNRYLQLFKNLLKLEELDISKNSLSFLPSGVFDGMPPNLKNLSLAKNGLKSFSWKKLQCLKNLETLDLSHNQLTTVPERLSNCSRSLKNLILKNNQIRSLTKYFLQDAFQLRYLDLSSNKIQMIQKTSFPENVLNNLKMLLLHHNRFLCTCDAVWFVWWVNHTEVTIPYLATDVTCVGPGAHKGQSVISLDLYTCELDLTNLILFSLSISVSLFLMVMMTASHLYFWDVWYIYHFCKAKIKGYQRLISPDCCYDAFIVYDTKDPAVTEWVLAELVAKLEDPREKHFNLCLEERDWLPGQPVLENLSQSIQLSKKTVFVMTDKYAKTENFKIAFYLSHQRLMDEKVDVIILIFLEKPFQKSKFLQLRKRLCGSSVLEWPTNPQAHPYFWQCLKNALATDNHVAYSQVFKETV
Method in brief: as §1

human TLR8 = molecular target: T3, human TLR8 (Homo sapiens, UniProt Q9NR97); assay: TLR8 inhibition reporter assay (HEK-Blue cells, SEAP reporter); conditions: HEK-Blue cells overexpressing human TLR8; stimulated with R848 15.9 μM; 22 hour incubation; SEAP readout
T3 sequence (Q9NR97 27-1041): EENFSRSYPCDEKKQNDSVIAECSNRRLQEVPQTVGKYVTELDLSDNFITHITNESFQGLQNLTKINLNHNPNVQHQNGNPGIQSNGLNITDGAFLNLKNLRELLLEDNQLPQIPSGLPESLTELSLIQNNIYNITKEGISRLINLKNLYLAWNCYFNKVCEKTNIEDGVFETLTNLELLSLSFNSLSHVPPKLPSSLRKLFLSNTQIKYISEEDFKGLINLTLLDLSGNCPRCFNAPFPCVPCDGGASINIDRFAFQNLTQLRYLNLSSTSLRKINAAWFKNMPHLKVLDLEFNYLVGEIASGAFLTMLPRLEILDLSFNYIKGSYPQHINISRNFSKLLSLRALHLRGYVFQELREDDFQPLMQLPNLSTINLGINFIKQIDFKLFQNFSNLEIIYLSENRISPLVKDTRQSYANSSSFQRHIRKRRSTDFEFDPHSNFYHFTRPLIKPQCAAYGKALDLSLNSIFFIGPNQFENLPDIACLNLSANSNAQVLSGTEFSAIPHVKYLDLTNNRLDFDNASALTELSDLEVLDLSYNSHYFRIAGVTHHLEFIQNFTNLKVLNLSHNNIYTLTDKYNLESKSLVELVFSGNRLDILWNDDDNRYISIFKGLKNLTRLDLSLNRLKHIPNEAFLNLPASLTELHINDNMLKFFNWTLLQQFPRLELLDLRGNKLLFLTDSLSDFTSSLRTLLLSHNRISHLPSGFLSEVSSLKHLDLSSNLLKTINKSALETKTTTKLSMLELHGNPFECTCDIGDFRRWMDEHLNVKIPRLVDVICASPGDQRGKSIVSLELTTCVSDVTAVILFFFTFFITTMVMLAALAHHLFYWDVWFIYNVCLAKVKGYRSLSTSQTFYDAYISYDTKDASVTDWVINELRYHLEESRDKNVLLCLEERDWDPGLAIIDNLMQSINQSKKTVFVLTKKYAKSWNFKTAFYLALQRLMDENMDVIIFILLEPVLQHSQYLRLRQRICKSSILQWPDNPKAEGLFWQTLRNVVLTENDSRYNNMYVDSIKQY
Method in brief: as §1

Row | IC50 (human TLR9) [nM] | IC50 (human TLR7) [nM] | IC50 (human TLR8) [nM] | Compound
1 | 33 | 10700 | > 50000 | CS(=O)(=O)c1ccc(-c2cn3c(n2)CC[C@H](C2CCN(C4CC5CCC(C4)N5CC4CC4)CC2)C3)cc1 (single isomer, unassigned) [Example 139]
2 | 98 | 4500 | > 50000 | CS(=O)(=O)c1ccc(-c2cn3cc(C4CCN(C5CCN(C6CCOCC6)CC5)CC4)cc(F)c3n2)cc1 [Example 112, 8-fluoro-2-(4-(methylsulfonyl)phenyl)-6-(1′-(tetrahydro-2H-pyran-4-yl)-[1,4′-bipiperidin]-4-yl)imidazo[1,2-a]pyridine]
3 | 4.3 | 1300 | > 50000 | CS(=O)(=O)c1ccc(-c2cn3cc(C4CCN(C5CCN(CC6CC6)CC5)CC4)cc(F)c3n2)cc1 [Example 109, 6-(1′-(cyclopropylmethyl)-[1,4′-bipiperidin]-4-yl)-8-fluoro-2-(4-(methylsulfonyl)phenyl)imidazo[1,2-a]pyridine]
4 | 329 | 2200 | > 50000 | Cc1cc(C2CCN(C3CC4CCC(C3)N4CC3CCC3)CC2)cn2cc(-c3ccc(S(C)(=O)=O)cc3)nc12 (single isomer, unassigned) [Example 89, 6-(1-(8-(cyclobutylmethyl)-8-azabicyclo[3.2.1]octan-3-yl)piperidin-4-yl)-8-methyl-2-(4-(methylsulfonyl)phenyl)imidazo[1,2-a]pyridine]

The next lines start with the compound.

Row | Compound | IC50 (human TLR9) [nM] | IC50 (human TLR7) [nM] | IC50 (human TLR8) [nM]
5 | COc1ccc(-c2cn3c(n2)CCC(C2CCN(C4CCN(C(=O)C(C)C)CC4)CC2)C3)cc1OC (single isomer, unassigned) [Example 41, 1-(4-(2-(3,4-dimethoxyphenyl)-5,6,7,8-tetrahydroimidazo[1,2-a]pyridin-6-yl)-[1,4′-bipiperidin]-1′-yl)-2-methylpropan-1-one] | 161 | > 50000 | > 50000
6 | COc1ccc(-c2cn3cc(C4C[C@H]5CC[C@@H](C4)N5C4CCN(C5CC5)CC4)cc(C)c3n2)cc1OC (mixture of isomers) [Example 24, 6-(8-(1-cyclopropylpiperidin-4-yl)-8-azabicyclo[3.2.1]octan-3-yl)-2-(3,4-dimethoxyphenyl)-8-methylimidazo[1,2-a]pyridine] | 102 | 2900 | > 50000
7 | CC(C)N1CCCC(N2CCC(c3cc(F)c4nc(-c5ccc(S(C)(=O)=O)cc5)cn4c3)CC2)CC1 (single isomer, unassigned) [Example 72, 8-fluoro-6-(1-(1-isopropylazepan-4-yl)piperidin-4-yl)-2-(4-(methylsulfonyl)phenyl)imidazo[1,2-a]pyridine] | 2.6 | 3000 | > 50000
8 | Cc1cc(C2CCN(C3CCN(C4CC4)CC3)CC2)cn2cc(-c3ccc(S(C)(=O)=O)cc3)nc12 [Example 7, 6-(1′-cyclopropyl-[1,4′-bipiperidin]-4-yl)-8-methyl-2-(4-(methylsulfonyl)phenyl) imidazo[1,2-a]pyridine] | 132 | 7800 | > 50000
9 | COc1ccc(-c2cn3c(n2)CCC(C2CCN(C4CCN(C5CC5)CC4)CC2)C3)cc1OC (single isomer, unassigned) [Example 37, 6-(1′-cyclopropyl-[1,4′-bipiperidin]-4-yl)-2-(3,4-dimethoxyphenyl)-5,6,7,8-tetrahydroimidazo[1,2-a]pyridine] | 62 | 4000 | > 50000
10 | COc1ccc(-c2cn3c(n2)CCC(C2CCN(C4CCN(C(=O)C5CC5)CC4)CC2)C3)cc1OC (single isomer, unassigned) [Example 44, cyclopropyl(4-(2-(3,4-dimethoxyphenyl)-5,6,7,8-tetrahydroimidazo[1,2-a]pyridin-6-yl)-[1,4′-bipiperidin]-1′-yl)methanone] | 314 | 45000 | > 50000
11 | CC(C)CN1C2CCC1CC(N1CCC([C@H]3CCc4nc(-c5ccc(S(C)(=O)=O)cc5)cn4C3)CC1)C2 (single isomer, unassigned) [Example 80] | 52 | > 50000 | > 50000
12 | COc1ccc(-c2cn3cc(C4CCN(C5CC6(C5)CN(CC(C)C)C6)CC4)cc(C)c3n2)cc1OC [Example 15, 2-(3,4-dimethoxyphenyl)-6-(1-(2-isobutyl-2-azaspiro[3.3]heptan-6-yl)piperidin-4-yl)-8-methylimidazo[1,2-a]pyridine] | 47 | 46000 | > 50000
13 | COc1ccc(-c2cn3c(n2)CC[C@@H](C2CCN(C4CC5CCC(C4)N5CC(C)C)CC2)C3)cc1OC (single isomer, unassigned) [Example 78] | 108 | 8600 | > 25000
14 | COc1ccc(-c2cn3cc(C4CCN(C5CCN(C6CC6)CC5)CC4)ccc3n2)cc1OC [Example 10, 6-(1′-cyclopropyl-[1,4′-bipiperidin]-4-yl)-2-(3,4-dimethoxyphenyl)imidazo[1,2-a]pyridine] | 129 | 5200 | > 50000
